Measurements taken from patent publication US20120095006A1, “TREATMENT OF PULMONARY HYPERTENSION” (Pfizer Inc., priority 1999, published 2012).

Experiments:
[1] = tested on: human patients having various causes of pulmonary hypertension; test: Clinical study: continuous sildenafil infusion in patients with pulmonary hypertension, PVR and SVR determined; assay type: in vivo; conditions: infusion to plasma level 100, 300 and 500 ng/ml, FIG. 1
Protocol: A number of patients having various causes of pulmonary hypertension were selected. The patients were then assessed in order to establish baseline data, including haemodynamic parameters (by right heart catheterization), blood gas profile (via an arterial line and pulse oximetry). The patients were then tested with 40 ppm of nitric oxide (NO) by inhilation for 5 minutes to assess the reversibility of pulmonary hypertension. Haemodynamic parameters were reassessed within 5 minutes of NO and then further assessed 5-20 minutes later. When the pulmonary arterial pressure levels had returned to baseline (+−5%) inhalation haemodynamic parameters were assessed again and patients were continuously infused with sildenafil at rates to control the plasma level at 100, 300 and 500 nanogrammes per milliliter. A few patients received placebo instead of sildenafil in double-blind fashion. Haemodynamic parameters were recorded throughout infusion. From the data collected during the trial, the PVR and SVR were determined.

[2] = tested on: hypoxic pulmonary vasoconstriction in anaesthetized Beagle dogs; test: Hypoxic pulmonary vasoconstriction in anaesthetised dogs, intravenous administration; assay type: in vivo, dog
Protocol: The anaesthetized dog is the model of choice in which to study the effect of drugs, owing to the similarity between canine and human haemodynamics, and additionally, to ensure cinsistency between pharmacological and toxicological species.
Beagle dogs of either sex were anaesthetized with intravenous sodium pentobarbitone (Sagatal [trademark], 30 to 45 mg/kg) and anesthesia maintained with an infusion of Sagatal (6 mg/kg/h) into the right femoral vein. The dogs were initially intubated via the mouth, and then via a tracheotomy, and artificially respired using an Ugo Basille dog respirator. […] Respiratory gases (inspired O2 and end tidal CO2) were monitored by a Normocap 200 (trademark) respiratory gas monitor (Datex Instrumentarium Corp.). The depth of anesthesia was assessed by carefully monitoring arterial blood pressure and heart rate. […] Pulmonary artery pressure (PAP) and pulmonary artery wedge pressure were recorded from this catheter. This catheter was also connected to a cardiac index computer (Gould Instruments) and cardiac output determined by thermodilution following rapid injection of 5 ml saline at room temperature. […] Lead II ECG was recorded from 2 stainless steel needles inserted subcutaneously in the right arm and left leg. […] All data from the primary signals (PAP, Arterial blood pressure (ABP) and ECG) was recorded on a Po-ne-mah (trademark) data acquisition system. […]

[3] = tested on: hypoxic pulmonary vasoconstriction in anaesthetized dogs; test: Hypoxic pulmonary vasoconstriction in anaesthetised dogs, inhaled administration; assay type: in vivo, dog; conditions: inhaled (nebulised), lowest of doses 30, 80, 230 and 770, hypoxic challenge, FIG. 3
Protocol: This separate study was performed in analogous fashion to intravenous administration, except that doses were administered into the inspiratory limb of the respiratory circuit using a Penta-sonic Nebuliser (deVilbiss). Each inhaled dose consisted of a timed nebulisation of the solution at a respiration rate of 15 breaths/min finishing 5 min before an hypoxic challenge. Sildenafil and vehicle were administered to a maximum of four dogs per group (i.e. total of eight dogs). At the end of the first vehicle experiment an additional hypoxic challenge was done following administration of an inhaled dose of sildenafil. Doses were made up by dissolving sildenafil in vehicle [sodium acetate buffer (0.038 M)] to the required concentration. Four doses of 30, 80, 230 and 770 microgrammes/weight of dog in kilogrammes were administered.

[4] = tested on: corpus cavernosum of the penis; conditions: dog model; cited from earlier work

## CCCc1nn(C)c2c(=O)[nH]c(-c3cc(S(=O)(=O)N4CCN(C)CC4)ccc3OCC)nc12 [sildenafil, 5-[2-ethoxy-5-(4-methylpiperazin-1-ylsulfonyl)phenyl]-1,6-dihydro-1-methyl-3-propylpyrazolo[4,3-d]pyrimidin-7-one]
[1]
  effect on PVR: significant reduction in PVR
  effect on SVR compared with effect on PVR: substantially lower than the effect on PVR
[2]; FIG. 2
  effect on SVR compared with effect on PVR: significantly lower than on PVP
[2]; lowest of doses 1.5, 4.5, 15 and 45, hypoxic challenge
  dose producing maximal effect on PVR (reversing hypoxic pulmonary vasoconstriction): 1.5 microgrammes/kg
[3]
  dose producing maximal effect on PVR: 30 microgrammes/kg
[4]
  calculated intravenous dose producing half-maximal potentiation (ED50) of nerve-induced pressure rises: 12 microgrammes/kg
